The source of these data is article PMC3375010, “The TRPV5/6 calcium channels contain multiple calmodulin binding sites with differential binding properties” (Journal of Structural and Functional Genomics, 2012).

The target of experiment [1] is T1, CaM (calmodulin) (Xenopus laevis, UniProt P0DP33).
T1 construct: made in house; host or cells: E. coli AR58 (pTNcoI2 plasmid)
Briefly: Tryptophan fluorescence of the peptide upon titration by CaM. It is filed as binding, Xenopus laevis (identical to mammalian). The settings on record: room temperature, excitation 282 nm. As for the experimental part: Fluorescence measurements were performed using a Varian Cary Eclipse fluorescence spectrophotometer (Agilent Technologies, USA), with emission and excitation slit width set to 5 nm. Tryptophan excitation wavelength was set to 282 nm and emission spectra were recorded in the range 295–405 nm. Each spectrum was recorded three times and averaged. Fluorescence intensity contribution from CaM and background intensity from buffer and cuvettes were subtracted for each spectrum. The recorded emission intensities were corrected for dilution effects. All measurements were carried out at room temperature. CaM and peptides stocks were prepared in 50 mM KCl, 10 mM CaCl2 20 mM Tris pH 7.0 buffer. […] For each titration point, the samples were kept at room temperature for 30 min prior to measurements to ensure that the equilibrium was reached.

In experiment [2] the target is T1, CaM (calmodulin). Put plainly: 15N-1H-HSQC NMR titration of 15N-labelled CaM with peptide (with 1D 15N-filtered NMR). It is filed as binding, Xenopus laevis (identical to mammalian). The settings on record: CaM buffer pH 7.0, 35°C. As for the experimental part: For the titration by synthetic peptides, ^15N-labeled CaM samples with concentration 0.3–0.7 mM were used. CaM and peptides were dissolved in either KCl 50 mM, CaCl2 10 mM, Tris 20 mM pH 7.0 (V5p1s, V6p1, V5p4, V5p5), or 10 mM CaCl2, 10 mM ammonium acetate buffer pH 5.0 (V5p3 and V6p3), or MilliQ water with 10 mM 2-mercaptoethanol (V5p2 and V5p2n).
The binding of target peptides to CaM was monitored by 2D ^15N-^1H-HSQC spectra. The combination of 1D ^15N-filtered and 1D ^15N-^1H-HSQC experiments was used to assess the ratio of bound and non-bound peptides. ^15N-T1rho experiments were used to estimate the transverse relaxation rates of the CaM resonances during the titration. For sequential assignment of CaM 3D HNCACB and CBCA(CO)NH experiments were performed.
All spectra were recorded at 308 K on Varian Inova 800 MHz or Bruker Avance III 600 MHz spectrometers, each equipped with a cryogenic probe.
All NMR spectra were processed using the NMRpipe suite and analyzed by the program CcpNmr Analysis.

The next experiment concerns CaM-Sepharose. The note with it: ref S. Verkaart, private communication; cited from earlier work. An excerpt: In our previous work we studied a long version of the C-terminal TRPV5 peptide 1 (V5p1, residues 696–729 in human TRPV5).
For experiment [3], the target named is T1, CaM (calmodulin). Put plainly: Isothermal titration calorimetry of CaM with peptide. The experiment is classed as binding, Xenopus laevis (identical to mammalian). The note with it: sequential binding sites model, N fixed to 2, 298 K. From the text:
Peptides corresponding to the amino acid residues 133–154, 310–330, 401–428, 591–612, 696–712 and 696–729 of human TRPV5 and 401–428 and 690–716 of human TRPV6 (cf. Table 1) were purchased from Peptides & elephants GmbH (Potsdam, Germany) and GenicBio Limited (Shanghai, China). All peptides were purified by HPLC (>95% purity) and analyzed by mass-spectrometry. Prior to all experiments, to remove residual TFA, the peptides were dialyzed against an appropriate buffer (dialysis tubing Spectra/Por® 7 with 1 K MWCO; Spectrum Labs, USA).
Expression was induced by a temperature shift from 30 to 42°C and 3–4 h after induction cells were harvested and lysed. Calmodulin was purified by weak anion exchange (DEAE, GE Lifesciences) and affinity chromatography (Phenylsepharose, GE Lifesciences). Purified protein was dialyzed against 1/100 of KCl 50 mM, CaCl2 10 mM, Tris 20 mM pH 7.0, freeze-dried and stored at −20°C. Unless specified differently, all chemicals were obtained from Sigma-Aldrich, USA). Uniformly ^13C and/or ^15N-labelled samples were produced by growing the cells in M9 minimal medium containing 4 g/L ^13C6-glucose and/or 1 g/L ^15N-ammonium chloride (Buchem BV, Apeldoorn, The Netherlands) as the sole source of carbon and/or nitrogen, respectively.
ITC samples were prepared by dissolving CaM and peptides in 50 mM KCl, 10 mM CaCl2, 20 mM Tris pH 7.0 buffer. The concentration of CaM in the cell was 15–20 μM, the concentration of peptides in the syringe exceeded the CaM concentration by 15–20 times. Protein concentrations were determined using a Nanodrop spectrophotometer ND-1000 (Isogen Life Science). ITC experiments were carried out using an ITC200 device (MicroCal Inc., Northampton, MA, USA). After thermal equilibration at 298 K, thirty-nine 1 μl serial injections were performed at 500 rpm stirring speed with an injection spacing of 4 min. To correct the experimental binding isotherm for background heat effects, we also titrated peptide into buffer. All measurements were performed at least three times to determine the optimal experimental conditions with respect to signal-to-noise ratio. In all cases, experiments were consistent and reproducible. ITC data analysis was performed using the Origin 7.0 software supplied by the manufacturer of the ITC. All data were analyzed with “one binding site model” and the “sequential binding site model” implemented in this software package.
Background: Isothermal titration calorimetry measures the heat released or taken up as one component is titrated into another.

“GSHRGWEILRQNTLGHL [V5p1s, short TRPV5 C-terminal peptide 1, residues 696–712 of human TRPV5, S696G]”: the “emission maximum λmax” value at CaM (calmodulin) [1] (W701, peptide:CaM ratio 1:2, 50 mM KCl, 10 mM CaCl2, 20 mM Tris pH 7.0) was ~ 324 nm. In addition, the “shift of emission maximum upon CaM addition” value on CaM (calmodulin) [1] (emission 295–405 nm, peptide:CaM 1:0–1:2) is given as “clear blue-shift of the emission maximum”. The “CaM residues/domain involved in first binding event” value on CaM (calmodulin) [2] (1:1 CaM:peptide) is listed as “C-domain of CaM”. Besides, the “CaM residues/domain involved in second binding event” value at CaM (calmodulin) [2] (1:2 CaM:peptide) is recorded as “N-domain of CaM”. Besides, the “number of distinct binding events” value at CaM (calmodulin) [2] (15N-1H-HSQC at CaM:peptide 1:0, 1:1, 1:2) is recorded as “two binding events”. For the same sequence, in the experiment on CaM-Sepharose, the “effect of C-terminal deletion of 17 amino acids on TRPV5 binding to CaM-Sepharose” value is on record as “did not affect TRPV5 binding to CaM-Sepharose”. For the same sequence, the “K2 (macroscopic binding constant, second event)” value on CaM (calmodulin) [3] (association constant, 50 mM KCl, 10 mM CaCl2, 20 mM Tris pH 7.0, CaM 15–20 μM in cell) is recorded as 2.9 (±1.9) × 10^4 M^−1. At CaM (calmodulin) [3] (association constant, 50 mM KCl, 10 mM CaCl2, 20 mM Tris pH 7.0, CaM 15–20 μM in cell, measured at least three times), the “K1 (macroscopic binding constant, first event)” value was 9.2 (±4.1) × 10^6 M^−1. On CaM (calmodulin) [3] (pH 7.0), this sequence displayed a ΔS1 of −95.3 cal mol^−1 deg^−1 and a ΔS2 of −64.1 cal mol^−1 deg^−1.
